Earlier results in US7449451B2, “Use of multiple antioxidant micronutrients as systemic biological radioprotective agents against potential ionizing radiation risks” (priority 2002, dated 2008).
Each block holds one compound with its values, some of them ahead of it.

Legend:
[1] = system: mammalian cells in culture
[2] = in vivo
mitotic cells = mitotic cells treated with cysteamine

Compound: Cc1c(C)c2c(c(C)c1OC(=O)CCC(=O)O)CC[C@@](C)(CCC[C@H](C)CCC[C@H](C)CCCC(C)C)O2 [d-alpha tocopheryl succinate]
radioprotectant value (animals and humans): marked radioprotectant value
reduction of radiation-induced transformation [1]: actively reduces the incidence of radiation-induced transformation

Compound: CC(=O)N[C@@H](CS)C(=O)O [N-acetylcysteine]
tolerability in humans (human beings): tolerated by humans very well
intracellular levels of glutathione (glutathione): actively increase the intracellular levels of glutathione without causing any toxicity

Compound: O=C(O)CCCCC1CCSS1 (stereo not drawn) [alpha lipoic acid]
tolerability in humans (human beings): tolerated by humans very well
intracellular levels of glutathione (glutathione): actively increase the intracellular levels of glutathione without causing any toxicity

Compound: CC1=C(/C=C/C(C)=C/C=C/C(C)=C/C=C/C=C(C)/C=C/C=C(C)/C=C/C2=C(C)CCCC2(C)C)C(C)(C)CCC1 [natural beta-carotene, beta-carotene]
radioprotectant value (animals and humans): marked radioprotectant value
reduction of radiation-induced transformation [1]: most effectively reduces radiation-induced transformation

hydrolysis in the intestine when ingested [2]: completely hydrolyzed in the intestine
Compound: N[C@@H](CCC(=O)N[C@@H](CS)C(=O)NCC(=O)O)C(=O)O [Glutathione, glutathione]

Compound: calcium ascorbate [vitamin C]
radioprotectant value (animals and humans): marked radioprotectant value

Compound: vitamin E
protection against lethal doses of cobalt-60 (mice): good protection

Compound: NCCS [cysteamine]
toxicity when administered to human beings (human beings; humans): extremely toxic
resistance of mitotic cells to radiation (mitotic cells): became very resistant to radiation
protection against bone marrow and gastrointestinal radiation syndromes (animals): protects animals against bone marrow (2, 31) and gastrointestinal (32) radiation syndromes
